Measurements from patent US6403576B1, “Antifungal and antiparasitic compounds” (priority 1998, dated 2002).
In brackets after ≈: the same amount, converted by molar mass. Where two headings read alike, the source gives them in different places.

What was measured:
[1] = tested on: Leishmania major promastigotes; conditions: cited from earlier work
[2] = rats; cited from earlier work
[3] = in vivo; cited from earlier work
[4] = tested on: Tritrichomonas foetus KV-1; assay: Trichomonad MIC assay, 96-well, 48 h; assay type: cell-based
Method: (§1) Trichomonad In Vitro and in Vivo Drug Screening Methods.(a) In Vitro: Several strains of T. vaginalis are maintained, covering the spectrum of metronidazole resistance: CDC85 (highly resistant); RU384, RU383, IR78 (moderately resistant); NYH286, RU284, RU393, C1-NIH (sensitive). These strains are routinely cultivated in a non-defined medium incorporating tryptose, yeast extract, maltose and supplemented with 10% horse serum.
(§2) In in vitro drug studies, plant extracts are tested using a 96-well plate assay as described by Meingassner et al., (1978, Antimicrob Agents Chemother 13, 1-3). This method uses only 200 ul of medium/well and thus uses very little plant extract. Results (in triplicate) are presented as “Minimal Inhibitory Concentration” (MIC) the lowest concentration completely blocking growth (Meingassner et al., 1978, supra). This method is also useful in comparing susceptibility of various strains (Meingassner et al., 1978, supra; Yarlett et al., 1987, Mol Biochem Parasitol 24, 255-261). […] Since vaginal O2 tensions are 1/20th to ¼th of atmospheric (Wagner et al., 1978, Fertil Steril 30, 50-53), it is more physiological to do drug sensitivity testing under conditions approaching this.
(§3) The trichomonad screen consists of two human pathogenic Trichomonas vaginalis strains and a livestock parasite Tritrichomonas foetus. The T. vaginalis isolates include a metronidazole sensitive isolate (C1-NIH: ATCC 30001) and a strain highly resistant to metronidazole (CDC-085: ATCC 50143). […] Table 4 details data from the initial group of 19 primary extracts. […] The results to Dec. 31, 1997 appear in Table 5.

[5] = tested on: Trichomonas vaginalis strain C1-NIH (ATCC #30001); assay: Trichomonad MIC assay, 96-well, 48 h; assay type: cell-based
Method: as §1, §2, §3

[6] = tested on: Trichomonas vaginalis CDC-085 (ATCC#50143); assay: Trichomonad MIC assay, 96-well, 48 h; assay type: cell-based
Method: as §1, §2, §3

[7] = cited from earlier work
[8] = 60 mg/day for 3 months; cited from earlier work
J-774 A.1 macrophages = conditions: 10 uM; not from mevalonate; cited from earlier work

In the case of `Nc1ccc(S(=O)(=O)c2ccc(N)cc2)cc1` [Dapsone, 4,4′-diaminodiphenyl sulfone], the “reversibility of inhibition by p-aminobenzoate (PABA) folate or thymidine” value [1] is given as “not reversible”.

In the case of `CC/C(=C(/c1ccc(OCCN(C)C)cc1)c1cccc(O)c1)c1ccccc1` [Droloxifene], the “reduced total serum cholesterol compared to controls” value [2] is listed as 65-70%.

For `Nc1nc(N)nc(Nc2ccc([As]3SCC(CO)S3)cc2)n1` (stereo not shown) [Melarsoprol], the “incidence of cerebral episodes” value [3] is given as 3-5%.

Work on `Cc1ncc([N+](=O)[O-])n1CCO` [Metronidazole] yielded an MIC ([4]; Table 4, 48 hrs, read-out: MIC KV-1 48 hrs) of 4 µg/mL (≈ 23.4 µM), an MIC ([4]; Table 5, new plant extracts, read-out: MIC KV1) of 3 µg/mL (≈ 17.5 µM) and an MIC ([5]; ATCC30001, Table 4, 48 hrs, read-out: MIC C1-HIH 48 hrs) of 3 µg/mL (≈ 17.5 µM). The MIC ([5]; ATCC30001, Table 5, new plant extracts, read-out: MIC C1-NIH) was 3 µg/mL (≈ 17.5 µM), the MIC ([6]; ATCC50143, Table 4, 48 hrs, metronidazole-resistant strain, read-out: MIC CDC-085 48 hrs) was 400 µg/mL (≈ 2340 µM) and the MIC ([6]; ATCC50143, Table 5, new plant extracts, read-out: MIC CDC-085) was 400 µg/mL (≈ 2340 µM).

In the case of `CC(=O)N1CCN(c2ccc(OCC3COC(Cn4ccnc4)(c4ccc(Cl)cc4Cl)O3)cc2)CC1` (stereo not shown) [ketoconazole], the “decreased plasma cholesterol from pretreatment baseline” value ([7]; 200 mg/day) is listed as 15% and the “decreased plasma cholesterol from pretreatment baseline” value ([7]; 1200 mg/day) is listed as 27%.

For `CC(C)=CCC/C(C)=C/C=C/C(C)=C/C=C/C(C)=C/C=C/C=C(C)/C=C/C=C(C)/C=C/C=C(\C)CCC=C(C)C` [lycopene], the “decrease in plasma LDL cholesterol” value [8] is given as 14% and the “cholesterol synthesis inhibited from acetate” value (J-774 A.1 macrophages) is given as 73%.
